Data taken from ChEMBL document CHEMBL1201862, “PubChem BioAssay data set” (2004).
Several values for one entry are separate records, joined by “and”; a condition that tells them apart may be missing. Equal entries are not always repeated.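 Compound exposure: 48 hours, 5 concentrations, 96-well plates. Here, GI50 denotes the concentration required for 50% inhibition of growth.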 Activity calls are given as the source filed them. No stated cut-off is given here; in the data, active = GI50 up to about 1.1 µM and inactive = higher.

Columns and labels:
Assay in all cases: NCI tumour cell line growth inhibition, 48 h
786-0 = test system: 786-0
A498 = test system: A498
HCT-116 = test system: HCT-116
HOP-62 = test system: HOP-62
IGROV-1 = test system: IGROV-1
K562 = test system: K562
MDA-MB-435 = test system: MDA-MB-435
MDA-N = test system: MDA-N
Malme-3M = test system: Malme-3M
NCI/ADR-RES = test system: NCI/ADR-RES
PC-3 = test system: PC-3
SK-MEL-28 = test system: SK-MEL-28
SK-MEL-2 = test system: SK-MEL-2
SK-MEL-5 = test system: SK-MEL-5
SNB-19 = test system: SNB-19
SNB-75 = test system: SNB-75
SW-620 = test system: SW-620
UACC-257 = test system: UACC-257
UO-31 = test system: UO-31
BT-549 = test system: BT-549

Row | SMILES | GI50 (786-0) | GI50 (A498) | GI50 (HCT-116) | GI50 (HOP-62) | GI50 (IGROV-1) | GI50 (K562) | GI50 (MDA-MB-435) | GI50 (MDA-N) | GI50 (Malme-3M) | GI50 (NCI/ADR-RES) | GI50 (PC-3) | GI50 (SK-MEL-28) | GI50 (SK-MEL-2) | GI50 (SK-MEL-5) | GI50 (SNB-19) | GI50 (SNB-75) | GI50 (SW-620) | GI50 (UACC-257) | GI50 (UO-31) | GI50 (BT-549)
1 | CC1(C)C2CCC(=O)C1CC2 (stereo unspecified) | > 100 µM (inactive) | > 100 µM (inactive) | > 100 µM (inactive) | > 100 µM (inactive) | > 100 µM (inactive) | 58.2 µM (inactive) | > 100 µM (inactive) | > 100 µM (inactive) | > 100 µM (inactive) | > 100 µM (inactive) | > 100 µM (inactive) | > 100 µM (inactive) | > 100 µM (inactive) | > 100 µM (inactive) | > 100 µM (inactive) | > 100 µM (inactive) | > 100 µM (inactive) | > 100 µM (inactive) | > 100 µM (inactive) | –
2 | COCP1(=S)OC(C)CCN1C(C)C (stereo unspecified) | > 100 µM (inactive) | – | > 100 µM (inactive) | > 100 µM (inactive) | > 100 µM (inactive) | > 100 µM (inactive) | > 100 µM (inactive) | – | > 100 µM (inactive) | > 100 µM (inactive) | > 100 µM (inactive) | – | > 100 µM (inactive) | > 100 µM (inactive) | > 100 µM (inactive) | – | > 100 µM (inactive) | > 100 µM (inactive) | > 100 µM (inactive) | > 100 µM (inactive)
3 | COc1ccc(/C=C(/c2ccc(OC)cc2)c2c(Cl)cc(Cl)c(/C(=C\c3ccc(OC)cc3)c3ccc(OC)cc3)c2/N=N/c2ccccc2)cc1 | > 100 µM (inactive) | 98.2 µM (inactive) | > 100 µM (inactive) | > 100 µM (inactive) | > 100 µM (inactive) | 45.1 µM (inactive) | > 100 µM (inactive) | – | > 100 µM (inactive) | > 100 µM (inactive) | > 100 µM (inactive) | > 100 µM (inactive) | > 100 µM (inactive) | > 100 µM (inactive) | > 100 µM (inactive) | > 100 µM (inactive) | > 100 µM (inactive) | 39.7 µM (inactive) | > 100 µM (inactive) | > 100 µM (inactive)
4 | O=C(CC(C(=O)c1cccs1)c1ccsc1)c1ccc(Cl)s1 (stereo unspecified) | > 100 µM (inactive) | > 100 µM (inactive) | 47.5 µM (inactive) | > 100 µM (inactive) | > 100 µM (inactive) | > 100 µM (inactive) | 85.7 µM (inactive) | – | > 100 µM (inactive) | 12.1 µM (inactive) | > 100 µM (inactive) | > 100 µM (inactive) | > 100 µM (inactive) | 70.3 µM (inactive) | 72.3 µM (inactive) | > 100 µM (inactive) | > 100 µM (inactive) | 67.9 µM (inactive) | 36.6 µM (inactive) | –
5 | Oc1ccc(-c2cc(-c3c(O)cc(O)cc3O)on2)cc1 | 93.5 µM (inactive) | – | 42.5 µM (inactive) | > 100 µM (inactive) | 51.1 µM (inactive) | 40.5 µM (inactive) | 56.1 µM (inactive) | 50.2 µM (inactive) | 70.5 µM (inactive) | > 100 µM (inactive) | 48 µM (inactive) | 52.8 µM (inactive) | > 100 µM (inactive) | 42.3 µM (inactive) | 91.2 µM (inactive) | 74.5 µM (inactive) | 65.6 µM (inactive) | 97.5 µM (inactive) | 53 µM (inactive) | 54.5 µM (inactive)
6 | O=C1Oc2ccccc2C(=O)/C1=C\Nc1nc(-c2ccccc2)cs1 | 5.83 µM (inactive) | 27.7 µM (inactive) | 4.95 µM (inactive) | 23.4 µM (inactive) | 12.3 µM (inactive) | 7.66 µM (inactive) | 7.38 µM (inactive) | 4.85 µM (inactive) | 11.6 µM (inactive) | 10.6 µM (inactive) | 16.9 µM (inactive) | 16.1 µM (inactive) | 14.3 µM (inactive) | 2.75 µM (inactive) | 19.9 µM (inactive) | 5.86 µM (inactive) | 3.31 µM (inactive) | 10.5 µM (inactive) | 7.8 µM (inactive) | –
7 | NC(=S)N/N=C1\CCCC1C(O)(C(F)(F)Cl)C(F)(F)Cl (stereo unspecified) | > 10 µM (inactive) | > 10 µM (inactive) | > 10 µM (inactive) | > 10 µM (inactive) | > 10 µM (inactive) | > 10 µM (inactive) | > 10 µM (inactive) | – | > 10 µM (inactive) | > 10 µM (inactive) | > 10 µM (inactive) | > 10 µM (inactive) | > 10 µM (inactive) | 2.01 µM (inactive) | > 10 µM (inactive) | > 10 µM (inactive) | > 10 µM (inactive) | > 10 µM (inactive) | – | > 10 µM (inactive)
8 | CCCCCCCCCCCCCCCCCCOP1(=O)OCCO1 | > 100 µM (inactive) | > 100 µM (inactive) | 49.5 µM (inactive) | 79.1 µM (inactive) | > 100 µM (inactive) | > 100 µM (inactive) | > 100 µM (inactive) | > 100 µM (inactive) | > 100 µM (inactive) | > 100 µM (inactive) | 22.8 µM (inactive) | > 100 µM (inactive) | > 100 µM (inactive) | > 100 µM (inactive) | 44.8 µM (inactive) | > 100 µM (inactive) | > 100 µM (inactive) | > 100 µM (inactive) | > 100 µM (inactive) | –
9 | CC(=O)Oc1ccc2c(-c3ccccc3)c(Oc3ccc(Cl)cc3)c(=O)oc2c1 | 16.4 µM (inactive) | 17 µM (inactive) | 14.9 µM (inactive) | 18.3 µM (inactive) | 15.9 µM (inactive) | 14.8 µM (inactive) | – | – | 15.6 µM (inactive) | – | 23.1 µM (inactive) | 17.7 µM (inactive) | – | 18 µM (inactive) | 14.4 µM (inactive) | 7.45 µM (inactive) | 20.3 µM (inactive) | 21.3 µM (inactive) | 14.8 µM (inactive) | 18.8 µM (inactive)
10 | c1ccc2c(c1)SCCCSCCSCCCS2 | > 100 µM (inactive) | – | > 100 µM (inactive) | > 100 µM (inactive) | > 100 µM (inactive) | > 100 µM (inactive) | > 100 µM (inactive) | > 100 µM (inactive) | – | > 100 µM (inactive) | > 100 µM (inactive) | > 100 µM (inactive) | – | > 100 µM (inactive) | > 100 µM (inactive) | > 100 µM (inactive) | > 100 µM (inactive) | > 100 µM (inactive) | 60.5 µM (inactive) | > 100 µM (inactive)
11 | C=C1CCC[C@@H](C)C(O)[C@@H]2OC(=O)C(=C)[C@@H]2C[C@@H](OC(C)=O)[C@@]2(C)CC[C@@H]1O2 (stereo partly specified) | 8.95 µM (inactive) | 9.84 µM (inactive) | 6.97 µM (inactive) | 8.09 µM (inactive) | 8.15 µM (inactive) | 5.5 µM (inactive) | 7.71 µM (inactive) | – | – | 6.78 µM (inactive) | 8.39 µM (inactive) | 7.98 µM (inactive) | 8.34 µM (inactive) | 6.92 µM (inactive) | 45.2 µM (inactive) | 0.91 µM (active) | 8.3 µM (inactive) | 8.18 µM (inactive) | 8.09 µM (inactive) | 7.52 µM (inactive)
12 | COC(=O)CCC(NC(=S)N/N=C/c1ccccn1)C(=O)OC (stereo unspecified) | > 100 µM (inactive) | > 100 µM (inactive) | > 100 µM (inactive) | > 100 µM (inactive) | > 100 µM (inactive) | > 100 µM (inactive) | – | – | > 100 µM (inactive) | – | – | > 100 µM (inactive) | > 100 µM (inactive) | > 100 µM (inactive) | > 100 µM (inactive) | > 100 µM (inactive) | > 100 µM (inactive) | > 100 µM (inactive) | > 100 µM (inactive) | –
13 | CC(=O)C(C)C(=O)N1C(=O)N(C)C2(C)N(C)C(=O)NC12C (stereo unspecified) | > 100 µM (inactive) | – | > 100 µM (inactive) | > 100 µM (inactive) | > 100 µM (inactive) | – | > 100 µM (inactive) | > 100 µM (inactive) | > 100 µM (inactive) | > 100 µM (inactive) | – | > 100 µM (inactive) | > 100 µM (inactive) | > 100 µM (inactive) | > 100 µM (inactive) | > 100 µM (inactive) | – | – | > 100 µM (inactive) | > 100 µM (inactive)
14 | O=c1c(Cl)c(Cl)cnn1-c1ccccc1 | 5.64 µM (inactive) and 4.79 µM (inactive) | 14.9 µM (inactive) and 17.1 µM (inactive) | 2.29 µM (inactive) and 1.75 µM (inactive) | 15 µM (inactive) and 8.49 µM (inactive) | – | 968 nM (active) and 929 nM (active) | 1.79 µM (inactive) and 2.08 µM (inactive) | 2.14 µM (inactive) and 1.81 µM (inactive) | 3.46 µM (inactive) and 3.02 µM (inactive) | 2 µM (inactive) | – | 3.4 µM (inactive) and 2.3 µM (inactive) | 3.94 µM (inactive) and 3.28 µM (inactive) | – | – | – | – | 13 µM (inactive) and 6.85 µM (inactive) | 4.18 µM (inactive) and 3.56 µM (inactive) | 1.8 µM (inactive) and 1.73 µM (inactive)
15 | CC(C)=CCC[C@](C)(O[C@@H]1O[C@H](CO)[C@@H](O)[C@H](O)[C@H]1O)[C@H]1CC[C@]2(C)[C@@H]1[C@H](O)C[C@@H]1[C@@]3(C)CC[C@H](O)C(C)(C)[C@@H]3[C@@H](O[C@@H]3O[C@H](CO)[C@@H](O)[C@H](O)[C@H]3O)C[C@]12C [GINSENOSIDE RG1] | > 100 µM (inactive) | > 100 µM (inactive) | > 100 µM (inactive) | > 100 µM (inactive) | > 100 µM (inactive) | > 100 µM (inactive) | > 100 µM (inactive) | > 100 µM (inactive) | > 100 µM (inactive) | – | > 100 µM (inactive) | > 100 µM (inactive) | > 100 µM (inactive) | > 100 µM (inactive) | > 100 µM (inactive) | > 100 µM (inactive) | > 100 µM (inactive) | > 100 µM (inactive) | > 100 µM (inactive) | > 100 µM (inactive)
